Read-outs that look alike come from different tables or passages of the source.
How the values were obtained:
[1] = tested on: UKE1 cells; assay: Growth inhibition GI50, UKE1 cells; assay type: cell-based
[2] = target: BRD4 (Homo sapiens (Human), UniProt O60885); assay: BRD4 DSF thermal shift (ΔTm); assay type: binding; conditions: for BRD4 DSF (ΔTm): Table 2; for DSF ΔTm: Table 1
[3] = tested on: MM1.S cells; assay: Antiproliferative activity, MM1.S cells; assay type: cell-based; conditions: Homo sapiens; for GI50: Table 2, read-out: GI50 (MM1S); for IC50: Table 1 comments
Procedure: Cellular activity of promising compounds is assessed using MM.1S and MV4-11 AML cells using c-Myc levels as biomarker (6-12 hr treatment) and antiproliferative activity (48-72 hr treatment) as described (Ciceri et al., Dual kinase-bromodomain inhibitors for rationally designed polypharmacology. Nat Chem Biol 2014).

[4] = UKE1, Table 2, read-out: GI50 (UKE1)

Compound	GI50 [1, 4]	BRD4 DSF (ΔTm) [2]	GI50 [3]	further results
Cc1cnc(Nc2cc(F)c(C3CCN(C)CC3)cn2)nc1Nc1cc(F)cc(NS(=O)(=O)C(C)(C)C)c1 [PN3-054, N-(3-Fluoro-5-((2-((4-fluoro-5-(1-methylpiperidin-4-yl)pyridin-2-yl)amino)-5-methylpyrimidin-4-yl)amino)phenyl)-2-methylpropane-2-sulfonamide]	449 nM	–	–	–
Cc1cnc(Nc2ccc(C3CCN(C)CC3)c(F)c2)nc1Nc1cc(Cl)cc(NS(=O)(=O)C(C)(C)C)c1 [PN3-076, N-(3-Chloro-5-((2-((3-fluoro-4-(1-methylpiperidin-4-yl)phenyl)amino)-5-methylpyrimidin-4-yl)amino)phenyl)-2-methylpropane-2-sulfonamide]	1100 nM	–	–	–
Cc1cnc(Nc2cc(F)c(C3CCN(C)CC3)cn2)nc1Nc1cc(Cl)cc(NS(=O)(=O)C(C)(C)C)c1 [PN3-074, N-(3-Chloro-5-((2-((4-fluoro-5-(1-methylpiperidin-4-yl)pyridin-2-yl)amino)-5-methylpyrimidin-4-yl)amino)phenyl)-2-methylpropane-2-sulfonamide]	937 nM	–	–	–
Cc1cnc(Nc2ccc(C3CCN(C)CC3)c(F)c2)nc1Nc1ccc(F)c(NS(=O)(=O)C(C)(C)C)c1 [PN2-118, N-(2-Fluoro-5-((2-((3-fluoro-4-(1-methylpiperidin-4-yl)phenyl)amino)-5-methylpyrimidin-4-yl)amino)phenyl)-2-methylpropane-2-sulfonamide]	–	13.0 °C	83 nM	–
CN1CCC(c2ccc(Nc3ncc(-c4cnn(C)c4)c(Nc4ccc(Cl)c(NS(=O)(=O)C(C)(C)C)c4)n3)cc2F)CC1 [PN1-145, N-(2-Chloro-5-((2-((3-fluoro-4-(1-methylpiperidin-4-yl)phenyl)amino)-5-(1-methyl-1H-pyrazol-4-yl)pyrimidin-4-yl)amino)phenyl)-2-methylpropane-2-sulfonamide]	–	7.1 °C	220 nM	–
Cc1cnc(Nc2ccc(C3CCN(C)CC3)c(F)n2)nc1Nc1ccc(F)c(NS(=O)(=O)C(C)(C)C)c1 [PN2-116, N-(2-Fluoro-5-((2-((6-fluoro-5-(1-methylpiperidin-4-yl)pyridin-2-yl)amino)-5-methylpyrimidin-4-yl)amino)phenyl)-2-methylpropane-2-sulfonamide]	–	12.1 °C	104 nM	–
Cc1cnc(Nc2ccc(C3CCN(C)CC3)c(F)c2)nc1Nc1cnc(Cl)c(NS(=O)(=O)C(C)(C)C)c1 [MA11-016, N-(2-chloro-5-((2-((3-fluoro-4-(1-methylpiperidin-4-yl)phenyl)amino)-5-methylpyrimidin-4-yl)amino)pyridin-3-yl)-2-methylpropane-2-sulfonamide]	110 nM	14.8 °C	–	–
Cc1cnc(Nc2cc(F)c(C3CCN(C)CC3)c(F)c2)nc1Nc1cccc(NS(=O)(=O)C(C)(C)C)c1 [PN2-124, N-(3-((2-((3,5-Difluoro-4-(1-methylpiperidin-4-yl)phenyl)amino)-5-methylpyrimidin-4-yl)amino)phenyl)-2-methylpropane-2-sulfonamide]	–	13.4 °C	80 nM	–
Cc1cnc(Nc2cc(F)c(C3CCN(C)CC3)c(F)c2)nc1Nc1cc(Cl)cc(NS(=O)(=O)C(C)(C)C)c1 [PN3-075, N-(3-Chloro-5-((2-((3,5-difluoro-4-(1-methylpiperidin-4-yl)phenyl)amino)-5-methylpyrimidin-4-yl)amino)phenyl)-2-methylpropane-2-sulfonamide]	556 nM	–	–	–
Cc1cnc(Nc2ccc(C3=CCN(C)CC3)c(F)c2)nc1Nc1ccc(Cl)c(NS(=O)(=O)C(C)(C)C)c1 [PN1-101, N-(2-Chloro-5-((2-((3-fluoro-4-(1-methyl-1,2,3,6-tetrahydropyridin-4-yl)phenyl)amino)-5-methylpyrimidin-4-yl)amino)phenyl)-2-methylpropane-2-sulfonamide]	–	13.5 °C	100 nM	–
Cc1ccc(Nc2nc(Nc3ccc(C4CCN(C)CC4)c(F)c3)ncc2C)cc1NS(=O)(=O)C(C)(C)C [PN2-173, N-(5-((2-((3-Fluoro-4-(1-methylpiperidin-4-yl)phenyl)amino)-5-methylpyrimidin-4-yl)amino)-2-methylphenyl)-2-methylpropane-2-sulfonamide]	463 nM	12.3 °C	–	–
Cc1cnc(Nc2cc(F)cc(N3CCN(C)CC3)c2)nc1Nc1cccc(NS(=O)(=O)C(C)(C)C)c1 [drawing 14]	–	–	–	DSF ΔTm [2]: 11.1 °C; IC50 [3]: 220 nM
CN1CCC(c2ccc(Nc3ncc(N)c(Nc4ccc(Cl)c(NS(=O)(=O)C(C)(C)C)c4)n3)cc2F)CC1 [PN1-140, N-(5-((5-Amino-2-((3-fluoro-4-(1-methylpiperidin-4-yl)phenyl)amino)pyrimidin-4-yl)amino)-2-chlorophenyl)-2-methylpropane-2-sulfonamide]	–	9.5 °C	1800 nM	–
Cc1cnc(Nc2cc(F)cc(N3CCN(C)CC3)c2)nc1Nc1ccc(Cl)c(NS(=O)(=O)C(C)(C)C)c1 [drawing 10]	–	–	–	DSF ΔTm [2]: 11.1 °C; IC50 [3]: 160 nM
Cc1cnc(Nc2ccc(C3CCN(C)CC3)c(F)c2)nc1Nc1cccc(NS(=O)(=O)C(C)(C)C)c1 [drawing 13]	–	–	–	DSF ΔTm [2]: 12.3 °C; GI50 ([1]; UKE1, Table 1 comments, read-out: GI50 (UKE1 cells)): 110 nM
Cc1cnc(Nc2cc(F)c(C3CCN(C)CC3)c(F)c2)nc1Nc1cnc(Cl)c(NS(=O)(=O)C(C)(C)C)c1 [MA11-017, N-(2-chloro-5-((2-((3,5-difluoro-4-(1-methylpiperidin-4-yl)phenyl)amino)-5-methylpyrimidin-4-yl)amino)pyridin-3-yl)-2-methylpropane-2-sulfonamide]	102 nM	14.3 °C	–	–
Cc1cnc(Nc2cc(F)c(C3CCN(C)CC3)c(F)c2)nc1Nc1cc(F)cc(NS(=O)(=O)C(C)(C)C)c1 [PN3-053, N-(3-((2-((3,5-Difluoro-4-(1-methylpiperidin-4-yl)phenyl)amino)-5-methylpyrimidin-4-yl)amino)-5-fluorophenyl)-2-methylpropane-2-sulfonamide]	185 nM	–	–	–
Cc1cnc(Nc2ccc(C3CCN(C)CC3)c(F)c2)nc1Nc1cccc(NS(=O)(=O)C(C)(C)C)n1 [MA11-032, N-(6-((2-((3-fluoro-4-(1-methylpiperidin-4-yl)phenyl)amino)-5-methylpyrimidin-4-yl)amino)pyridin-2-yl)-2-methylpropane-2-sulfonamide]	385 nM	–	–	–
Cc1cnc(Nc2ccc(C3CCN(C)CC3)c(F)c2)cc1Nc1cccc(NS(=O)(=O)C(C)(C)C)c1 [SY3-039, N-(3-((2-((3-Fluoro-4-(1-methylpiperidin-4-yl)phenyl)amino)-5-methylpyridin-4-yl)amino)phenyl)-2-methylpropane-2-sulfonamide]	–	6.7 °C	1600 nM	–
Cc1ccc(Nc2nc(Nc3cc(F)c(C4CCN(C)CC4)c(F)c3)ncc2C)cc1NS(=O)(=O)C(C)(C)C [PN2-174, N-(5-((2-((3,5-Difluoro-4-(1-methylpiperidin-4-yl)phenyl)amino)-5-methylpyrimidin-4-yl)amino)-2-methylphenyl)-2-methylpropane-2-sulfonamide]	194 nM	13.3 °C	–	–
CN1CCC(c2ccc(Nc3ncc(I)c(Nc4ccc(Cl)c(NS(=O)(=O)C(C)(C)C)c4)n3)cc2F)CC1 [PN1-118, N-(2-Chloro-5-((2-((3-fluoro-4-(1-methylpiperidin-4-yl)phenyl)amino)-5-iodopyrimidin-4-yl)amino)phenyl)-2-methylpropane-2-sulfonamide]	–	11.6 °C	210 nM	–
Cc1cnc(Nc2ccc(C3CCN(C)CC3)c(F)c2)nc1Nc1cc(F)cc(NS(=O)(=O)C(C)(C)C)c1 [PN3-052, N-(3-Fluoro-5-((2-((3-fluoro-4-(1-methylpiperidin-4-yl)phenyl)amino)-5-methylpyrimidin-4-yl)amino)phenyl)-2-methylpropane-2-sulfonamide]	270 nM	–	–	–
CN1CCC(c2ccc(Nc3ncc(C(F)F)c(Nc4ccc(Cl)c(NS(=O)(=O)C(C)(C)C)c4)n3)cc2F)CC1 [PN1-117, N-(2-Chloro-5-((5-(difluoromethyl)-2-((3-fluoro-4-(1-methylpiperidin-4-yl)phenyl)amino)pyrimidin-4-yl)amino)phenyl)-2-methylpropane-2-sulfonamide]	–	12.7 °C	240 nM	–
CN1CCC(c2ccc(Nc3ncc(C#N)c(Nc4ccc(Cl)c(NS(=O)(=O)C(C)(C)C)c4)n3)cc2F)CC1 [PN1-138, N-(2-Chloro-5-((5-cyano-2-((3-fluoro-4-(1-methylpiperidin-4-yl)phenyl)amino)pyrimidin-4-yl)amino)phenyl)-2-methylpropane-2-sulfonamide]	–	7.6 °C	890 nM	–
CN1CCC(c2ccc(Nc3ncc([N+](=O)[O-])c(Nc4ccc(Cl)c(NS(=O)(=O)C(C)(C)C)c4)n3)cc2F)CC1 [PN1-132, N-(2-Chloro-5-((2-((3-fluoro-4-(1-methylpiperidin-4-yl)phenyl)amino)-5-nitropyrimidin-4-yl)amino)phenyl)-2-methylpropane-2-sulfonamide]	–	12.8 °C	360 nM	–
Cc1cnc(Nc2cc(F)c(C3CCN(C)CC3)cn2)nc1Nc1cccc(NS(=O)(=O)C(C)(C)C)n1 [MA11-038, N-(6-((2-((4-fluoro-5-(1-methylpiperidin-4-yl)pyridin-2-yl)amino)-5-methylpyrimidin-4-yl)amino)pyridin-2-yl)-2-methylpropane-2-sulfonamide]	5600 nM	–	–	–
Cc1cnc(Nc2cc(F)c(C3CCN(C)CC3)c(F)c2)nc1Nc1ccc(F)c(NS(=O)(=O)C(C)(C)C)c1 [PN2-123, N-(5-((2-((3,5-Difluoro-4-(1-methylpiperidin-4-yl)phenyl)amino)-5-methylpyrimidin-4-yl)amino)-2-fluorophenyl)-2-methylpropane-2-sulfonamide]	–	14.7 °C	81 nM	–

From US12391676B2 (H. LEE MOFFITT CANCER CENTER AND RESEARCH INSTITUTE, INC., priority 2018, dated 2025)
